Columns and labels:
Details in all cases: 72 h
Caco-2 [1] = assay: cell viability relative to DMSO; higher = less toxic
Calu-3 [2] = assay: as above
HepG2 [3] = assay: as above
U2OS [4] = assay: as above
Vero E6 [5] = assay: as above
Caco-2 [6] = assay: relative viability EC50 (midpoint between 100% and the lowest measured viability); higher = less toxic
Calu-3 [7] = assay: as above
U2OS [8] = assay: as above
Caco-2 [9] = assay: drug sensitivity score (DSS) for viability; higher = more toxic; extreme values may be limits of the assay
Calu-3 [10] = assay: as above
HepG2 [11] = assay: as above
U2OS [12] = assay: as above
Vero E6 [13] = assay: as above
HepG2 [14] = assay: relative viability EC50 (midpoint between 100% and the lowest measured viability); higher = less toxic
Vero E6 [15] = assay: as above

SMILES	cell viability (Caco-2 [1]; 1 nM) [%]	cell viability (Caco-2 [1]; 10 nM) [%]	cell viability (Caco-2 [1]; 100 nM) [%]	cell viability (Caco-2 [1]; 1000 nM) [%]	cell viability (Caco-2 [1]; 10000 nM) [%]	cell viability (Calu-3 [2]; 1 nM) [%]	cell viability (Calu-3 [2]; 10 nM) [%]	cell viability (Calu-3 [2]; 100 nM) [%]	cell viability (Calu-3 [2]; 1000 nM) [%]	cell viability (Calu-3 [2]; 10000 nM) [%]	cell viability (HepG2 [3]; 1 nM) [%]	cell viability (HepG2 [3]; 10 nM) [%]	cell viability (HepG2 [3]; 100 nM) [%]	cell viability (HepG2 [3]; 1000 nM) [%]	cell viability (HepG2 [3]; 10000 nM) [%]	cell viability (U2OS [4]; 1 nM) [%]	cell viability (U2OS [4]; 10 nM) [%]	cell viability (U2OS [4]; 100 nM) [%]	cell viability (U2OS [4]; 1000 nM) [%]	cell viability (U2OS [4]; 10000 nM) [%]	cell viability (Vero E6 [5]; 1 nM) [%]	cell viability (Vero E6 [5]; 10 nM) [%]	cell viability (Vero E6 [5]; 100 nM) [%]	cell viability (Vero E6 [5]; 1000 nM) [%]	cell viability (Vero E6 [5]; 10000 nM) [%]	relative viability EC50 (Caco-2 [6]) [µM]	relative viability EC50 (Calu-3 [7]) [µM]	relative viability EC50 (U2OS [8]) [µM]	drug sensitivity score (Caco-2 [9])	drug sensitivity score (Calu-3 [10])	drug sensitivity score (HepG2 [11])	drug sensitivity score (U2OS [12])	drug sensitivity score (Vero E6 [13])	relative viability EC50 (HepG2 [14]) [µM]	relative viability EC50 (Vero E6 [15]) [µM]
c1cc(-c2cnn3cc(-c4ccc(N5CCNCC5)cc4)cnc23)c2cccnc2c1	93.9	99.7	102	95.1	20.6	109	104	97.4	111	6.2	108	101	97.2	102	74.9	97.4	93.2	95.9	87.2	1.5	92.4	99	92.6	87.7	69.3	2.67	3.69	2.11	5.1	4.5	0.8	7.6	2.5		
COCc1c(-c2ccc(NC(=O)Nc3cc(C(F)(F)F)ccc3F)c(F)c2)c2c(N)ncnn2c1CN1CCOCC1 [ACTB-1003]	105	99	102	78.4	32.9	101	87.5	93.9	72.1	65.2	110	104	91.1	18.1	2.1	97.6	97.1	101	75	23.3	95.7	102	101	106	24.8	1.35		1.34	6.8	5.2	16.2	7.8	3.7	0.386	3.57
N[C@@H](C(=O)O)c1cc(O)ccc1Cl [CHPG]	94.2	91.7	94.8	98.7	96											97.6	99	98.5	104	103	94.9	93.4	92.2	94.6	108	> 10		> 10	0			0	0		> 10
CS(=O)(=O)N1CCN(Cc2cc3nc(-c4cccc5[nH]ncc45)nc(N4CCOCC4)c3s2)CC1 [GDC-0941]																										0.158	0.438	0.775	11.6	11.8	9.2	6.9	6.5		
CC1Nc2ccc(Cl)cc2S(=O)(=O)N1 (stereo not given) [IDRA-21]	105	105	95	104	99	87.5	92.2	102	97.4	101	102	93.8	97.3	98.9	98	99.3	105	99.6	102	98.2						> 10	> 10	> 10	0	0	0	0		> 10	
CC(C)c1ccc(NC(=O)c2cccs2)c(-c2nc3ccccc3[nH]c2=O)c1 [ML281]	102	102	96.5	102	93.5						103	106	105	95.7	102	111	105	101	102	98.3	96.3	101	97	95.5	96.1	> 10		> 10	0		0	0	0	> 10	> 10
Cc1ccc(NCCCc2ccccc2)c(N)c1 [NFKB-activation-inhibitor-II]	89.4	85	92.6	98.4	79.9	90	93.8	94.7	103	84.1	110	97.1	103	98.2	100	98.9	102	94.9	102	93.2						> 10	> 10	> 10	0	0.1	0	0		> 10	
